According to paper PMC6539231, “4,5-Diaryl 3(2H)Furanones: Anti-Inflammatory Activity and Influence on Cancer Growth” (Molecules, 2019):
“Also recorded” adds a separate entry of the source.

Experiments:
ovine COX-1 = molecular target: T1, ovine COX-1 (Ovis aries, UniProt P05979); test: In vitro COX-1 inhibition (Cayman COX Inhibitor Screening Assay kit); type: biochemical; conditions: for % Inhibition (COX-1): Compound concentration 50 μΜ, arachidonic acid 0.1 μM
T1 construct: purchased Cayman Chemical Co., Ann Arbor, MI, USA
T1 sequence (P05979 25-600): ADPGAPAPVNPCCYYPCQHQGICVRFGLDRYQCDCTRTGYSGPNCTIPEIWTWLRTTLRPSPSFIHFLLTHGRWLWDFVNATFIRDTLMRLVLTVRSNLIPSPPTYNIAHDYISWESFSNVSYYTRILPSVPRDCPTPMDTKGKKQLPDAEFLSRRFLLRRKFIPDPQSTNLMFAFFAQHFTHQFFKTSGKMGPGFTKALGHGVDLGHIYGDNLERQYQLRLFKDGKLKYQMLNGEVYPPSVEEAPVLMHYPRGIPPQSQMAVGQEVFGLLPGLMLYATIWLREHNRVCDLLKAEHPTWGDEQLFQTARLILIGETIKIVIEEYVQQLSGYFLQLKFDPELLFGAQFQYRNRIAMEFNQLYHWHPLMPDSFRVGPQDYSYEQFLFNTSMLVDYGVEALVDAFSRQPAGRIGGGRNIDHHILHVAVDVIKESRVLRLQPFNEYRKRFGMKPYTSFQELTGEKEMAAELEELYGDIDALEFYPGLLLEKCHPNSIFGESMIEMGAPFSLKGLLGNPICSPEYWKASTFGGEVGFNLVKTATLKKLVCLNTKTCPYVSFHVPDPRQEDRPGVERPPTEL
Description: (§1) The COX-1 and COX-2 activities of the compounds were measured using ovine COX-1 and human recombinant COX-2 enzymes included in the “COX Inhibitor Screening Assay” kit provided by Cayman (Cayman Chemical Co., Ann Arbor, MI, USA) as reported previously

human recombinant COX-2 = molecular target: T2, human recombinant COX-2 (Homo sapiens, UniProt P35354); test: In vitro COX-2 inhibition (Cayman COX Inhibitor Screening Assay kit); type: biochemical; conditions: for % Inhibition (COX-2): Compound concentration 50 μΜ, arachidonic acid 0.1 μM
T2 construct: purchased Cayman Chemical Co., Ann Arbor, MI, USA
T2 sequence (P35354 18-604): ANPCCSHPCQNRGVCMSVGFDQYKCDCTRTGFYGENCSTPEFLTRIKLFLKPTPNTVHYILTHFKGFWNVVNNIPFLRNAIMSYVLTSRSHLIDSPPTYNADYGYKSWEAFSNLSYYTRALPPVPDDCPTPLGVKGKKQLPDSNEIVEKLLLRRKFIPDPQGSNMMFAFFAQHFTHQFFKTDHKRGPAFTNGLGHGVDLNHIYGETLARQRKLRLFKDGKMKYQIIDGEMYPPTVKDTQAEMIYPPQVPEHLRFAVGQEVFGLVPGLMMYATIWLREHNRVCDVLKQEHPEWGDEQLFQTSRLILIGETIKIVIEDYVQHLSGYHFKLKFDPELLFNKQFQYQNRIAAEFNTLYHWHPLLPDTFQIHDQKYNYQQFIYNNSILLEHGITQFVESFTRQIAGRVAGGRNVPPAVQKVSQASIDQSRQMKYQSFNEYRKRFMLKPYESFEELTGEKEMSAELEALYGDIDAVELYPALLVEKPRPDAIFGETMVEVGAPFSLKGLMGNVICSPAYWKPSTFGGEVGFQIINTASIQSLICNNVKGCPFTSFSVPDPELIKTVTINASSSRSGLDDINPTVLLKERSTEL
Description: as §1

[1] = test system: carrageenan mice paw oedema; test: Carrageenin-induced mouse paw edema; type: in vivo, mice (AKR); conditions: Mus musculus, ip; Dose 0.1 µmol/g; intraperitoneally, simultaneously with carrageenin; read-out: CPE, %
Description: From the data of Table 7 it is obvious that anti-inflammatory activity of alkylsulfones and sulfoxides of furan-3(2H)-ones, including annelated derivatives are very similar.
The anti-inflammatory activity of compounds was performed using the carrageenan mice paw oedema assay. Animal of both sex (AKR), with exception of pregnant females were housed under standard conditions, receiving only water during the experimental period. […] The detailed description of the whole experiment reported previously. All the biological experiments were carried out in full compliance with the European Convention for the Protection of Vertebrate Animals used for Experimental or Other Scientific Purposes (ETS NO 123, Strasbourg, 03/18/1986): Strasbourg (France). European Treaty Series, № 123, March 18, 1986. 11 P. The project identification code and date of approval is 350880/3468 of 15-12-2014, University of Thessaloniki.

MCF-7 cells [2] = test: Growth inhibition assay, MCF-7 cells; type: cell-based, human; conditions: Homo sapiens, MCF7, 48 h, 48 h exposure
Description: (§2) The cells were grown in the presence of each of the selected compounds as well as of the two well-known anti-neoplastic drugs gefitinib and 5-fluorouracil.
(§3) Each cell culture was treated appropriately, ensuring that DMSO concentration was kept below ≤ 0.2% (v/v) after every dilution. Cells were seeded in 24-well plates, at an initial density of 5 × 10^4 cells/mL. […] Cells were allowed to grow for additional 48 h before being harvested by trypsinization and subsequently counted (cell density; number of cells/mL) using a hemocytometer (Neubauer counting chamber) and optical microscopy. Cell growth was expressed as a percentage relative to that for the untreated control culture (only cells and medium, CTL).

MCF-7 cells [3] = test: Combination (synergy) growth assay in MCF-7 cells, Combination Index; type: cell-based, human; conditions: MCF-7, 48 h; for Combination Effect with 5-fluorouracil / CI, combination with 5-fluorouracil: + 0.3 μM 5-fu; for % Cell Growth, combination with 5-fluorouracil: + 0.3 μM 5-fu (21.3 μM 1h, 2.9 μM 1g, 3.8 μM x-1, 29 μM cel); for CI, combination with 5-fluorouracil / CI, combination with gefitinib: CI <1 synergy, >1 antagonism; for Combination Effect with gefitinib / CI, combination with gefitinib: + 70 μM gef; for % Cell Growth, combination with gefitinib: + 70 μM gef (27.5 μM 1h, 10 μM 1g, 10 μM x-1, 29 μM cel)
Description: In addition, exposure of the MCF-7 cells to each of the compounds in combination with each one of the two anti-neoplastic drugs was performed in order to study the synergistic effect of the compounds. The results are shown in Table 9 and Figure 5 and Figure 6.

MCF-7 cells [4] = test: as above; type: cell-based, human; conditions: MCF-7, 48 h; for Combination Effect with celecoxib / CI, combination with celecoxib: + 29 μM cel; for % Cell Growth, combination with celecoxib: + 29 μM cel (21.3 μM 1h, 2.9 μM 1g, 3.8 μM x-1); for CI, combination with celecoxib: CI <1 synergy, >1 antagonism
HSC-3 cells = test: Growth inhibition assay, HSC-3 cells; conditions: for HSC-3 % Cell Growth: Compound concentration: 10μΜ; for IC50: Homo sapiens, HSC-3, 48 h, read-out: HSC-3 IC50 Values
Description: as §2, §3

Structure (SMILES)	% Inhibition (COX-1) (ovine COX-1)	IC50 (ovine COX-1; read-out: Experimental IC50 COX-1)	% Inhibition (COX-2) (human recombinant COX-2)	IC50 (human recombinant COX-2; read-out: Experimental IC50 COX-2)	inhibition in vivo at 0.1 µmol/g [1]	IC50 (MCF-7 cells [2])	Combination Effect with 5-fluorouracil (MCF-7 cells [3])	% Cell Growth, combination with 5-fluorouracil (MCF-7 cells [3])	CI, combination with 5-fluorouracil (MCF-7 cells [3])	Combination Effect with gefitinib (MCF-7 cells [3])	% Cell Growth, combination with gefitinib (MCF-7 cells [3])	CI, combination with gefitinib (MCF-7 cells [3])	Combination Effect with celecoxib (MCF-7 cells [4])	% Cell Growth, combination with celecoxib (MCF-7 cells [4])	CI, combination with celecoxib (MCF-7 cells [4])	HSC-3 % Cell Growth (HSC-3 cells)	IC50 (HSC-3 cells)	HSC-3 growth inhibition (HSC-3 cells; concentration of 10 μΜ)	melting point
C[S+]([O-])c1ccc(C2=C(c3ccc(F)cc3)OC(C)(C)C2=O)cc1 (stereo not shown) [1g, 5-(4′-Fluorophenyl) 2,2-dimethyl-4-[4-(methylsulfinyl)phenyl]-furan-3(2H)-one]	73%	2800 nM	0%	> 50 µM	49%	10 µM	synergism	19.1%	0.058 ± 0.010 <1	synergism	36.5%	0.780 ± 0.200 < 1	synergism	36.6%	0.750 ± 0.025 < 1	36 ± 4%	7.5 µM	64%	
CC1(C)OC(c2ccc(F)cc2)=C(c2ccc(S(C)(=O)=O)cc2)C1=O [1h, 5-(4′-Fluorophenyl)-2,2-dimethyl-4-[4′-(methylsulfonyl)phenyl]-furan-3(2H)-one]	32%		0%		48.8%	24 µM	synergism	27.3%	0.533 ± 0.015 <1	antagonistic effect; also recorded: antagonism	45.9%	>1	antagonism	38.6%	>1	100 ± 10%	90 µM		191 to 192 °C
